Converted amounts (≈) assume the structure as drawn.
How the values were obtained:
[1] = system: Micrococcus luteus; assay: Antibacterial activity against Micrococcus luteus IFC12708; type: functional
[2] = system: Candida albicans; assay: Antifungal activity against candida albicans ATCC 10231; type: functional, organism-based
[3] = system: Escherichia coli; assay: Antibacterial activity against Escherichia coli ATCC 11775; type: functional
[4] = system: Staphylococcus aureus; assay: Antibacterial activity against Staphylococcus aureus ATCC 6538; type: functional
[5] = target: Isocitrate lyase (Candida albicans, UniProt Q9P8Q7); assay: Inhibition of candida albicans isocitrate lyase
[6] = system: Proteus vulgaris; assay: Antibacterial activity against Proteus vulgaris ATCC 3851; type: functional
[7] = system: Bacillus subtilis; assay: Antibacterial activity against Bacillus subtilis ATCC 6633; type: functional
[8] = system: Salmonella typhimurium; assay: Antibacterial activity against Salmonella Typhimurium ATCC 14028; type: functional, Salmonella enterica subsp. enterica serovar Typhimurium; settings: Salmonella enterica

Chain of Isocitrate lyase (Q9P8Q7 whole entry): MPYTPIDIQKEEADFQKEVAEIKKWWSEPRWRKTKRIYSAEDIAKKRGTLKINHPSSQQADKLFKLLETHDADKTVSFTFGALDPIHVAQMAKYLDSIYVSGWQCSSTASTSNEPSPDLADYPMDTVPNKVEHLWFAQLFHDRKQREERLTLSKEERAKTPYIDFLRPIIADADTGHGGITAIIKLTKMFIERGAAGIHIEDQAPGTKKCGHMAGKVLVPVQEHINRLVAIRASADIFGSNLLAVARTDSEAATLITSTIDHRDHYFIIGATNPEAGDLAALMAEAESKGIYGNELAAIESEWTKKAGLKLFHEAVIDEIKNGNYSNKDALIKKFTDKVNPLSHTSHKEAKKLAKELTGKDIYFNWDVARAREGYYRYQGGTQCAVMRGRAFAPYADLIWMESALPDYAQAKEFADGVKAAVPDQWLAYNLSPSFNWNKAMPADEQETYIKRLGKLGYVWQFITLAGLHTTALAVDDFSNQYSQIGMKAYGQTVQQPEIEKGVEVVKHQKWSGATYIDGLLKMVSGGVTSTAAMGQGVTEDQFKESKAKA

Row | SMILES | MIC [1] [µg/mL] | IC50 [2] [µM] | MIC [3] [µg/mL] | MIC [4] [µg/mL] | IC50 [5] [µM] | MIC [6] [µg/mL] | MIC [7] [µg/mL] | MIC [8] [µg/mL]
1 | CC1=CC[C@H]2C(C)(C)CCC[C@]2(C)[C@H]1C[C@@H](OS(=O)(=O)O)[C@H](C)CCC/C(C)=C/Cc1cc(O)ccc1O.CN(C)C(=N)N | > 100 | 158 | > 100 | 50 | 158 | 12.5 | 6.25 | 50
2 | O=C(O)CC[N+](=O)[O-] |  | 845 |  |  | 50.7 |  |  | 
3 | CN(C)C(=N)N.C[C@@H]1CCC2=C(CCCC2(C)C)[C@@]1(C)CC[C@H](CCCc1ccoc1)COS(=O)(=O)O | 50 | 186 | > 100 | 50 | 33.8 | 12.5 | 6.25 | > 100
4 | CC1=CCC[C@@H](C)[C@]1(C)CC/C(C)=C/CCC(CCCc1ccoc1)COS(=O)(=O)O.CN(C)C(=N)N (stereo not given in full) | > 100 | 186 | > 100 | > 100 | 186 | 25 | 6.25 | > 100
5 | CC1=CC[C@H]2C(C)(C)CCC[C@]2(C)[C@H]1C/C=C(\C)CCC/C(C)=C/Cc1cc(O)ccc1O | 25 (≈ 55.5 µM) | 222 | > 100 | 100 (≈ 222 µM) | 76.8 | 6.25 (≈ 13.9 µM) | 3.25 (≈ 7.21 µM) | 25 (≈ 55.5 µM)
6 | C=C1CC[C@H]2C(C)(C)CCC[C@]2(C)[C@H]1C[C@@H](OS(=O)(=O)[O-])[C@H](C)CCC/C(C)=C/Cc1cc(O)ccc1O.[Na+] | 50 | 131 | > 100 | 25 | 71 | 6.25 | 1.56 | 50
7 | C=C1CCC[C@@H]2[C@@](C)(CC[C@H](CCCc3ccoc3)COS(=O)(=O)O)[C@H](C)CC[C@]12C.CN(C)C(=N)N | 25 | 186 | > 100 | 50 | 31.3 | 6.25 | 12.5 | 25
8 | C[C@@H]1[C@H](O)[C@@H](C)/C=C/C=C/C=C/C=C/C=C/C=C/C=C/[C@H](O[C@@H]2O[C@H](C)[C@@H](O)[C@H](N)[C@@H]2O)C[C@@H]2O[C@](O)(C[C@@H](O)C[C@@H](O)[C@H](O)CC[C@@H](O)C[C@@H](O)CC(=O)O[C@H]1C)C[C@H](O)[C@H]2C(=O)O [AMPHOTERICIN B] |  | 1.7 |  |  |  |  |  | 
9 | CC1(C)S[C@@H]2[C@H](NC(=O)[C@H](N)c3ccccc3)C(=O)N2[C@H]1C(=O)O [AMPICILLIN] | 1.56 (≈ 4.46 µM) |  | 6.25 (≈ 17.9 µM) | 3.12 (≈ 8.93 µM) |  | 1.56 (≈ 4.46 µM) | 1.56 (≈ 4.46 µM) | 1.56 (≈ 4.46 µM)
10 | CC1=CC[C@H]2C(C)(C)CCC[C@]2(C)[C@H]1C[C@@H](OS(=O)(=O)[O-])[C@H](C)CCC/C(C)=C/Cc1cc(O)ccc1O.[Na+] [HALISULFATE 1] | 50 | 131 | > 100 | 25 | 70.2 | 6.25 | 1.56 | 50
